Like-named read-outs stand apart in the source and are kept apart here.
Assays:
[1] = system: purified tubulin; test: Inhibition of tubulin assembly; type: biochemical; conditions: read-out: Inhibition tubulin assembly IC50 ± SD
[2] = system: WTβ3 cells (HeLa overexpressing βIII tubulin); test: Antiproliferative SRB assay; type: cell-based; conditions: SRB, 48 h; read-out: IC50 ± SD in WTβ3
[3] = system: M6/6 cells (SK-OV-3 expressing Pgp); test: Antiproliferative SRB assay; conditions: read-out: IC50 ± SD in M6/6 cells; SRB, 48 h
[4] = system: MDA-435 cells; test: Antiproliferative SRB assay; type: cell-based; conditions: 48 h, read-out: IC50 ± SD in MDA-435 cells
[5] = system: HeLa cells; test: Antiproliferative SRB assay; type: cell-based; conditions: 48 h, read-out: IC50 ± SD in HeLa
[6] = system: SKOV3 cells; test: Antiproliferative SRB assay; type: cell-based; conditions: 48 h, read-out: IC50 ± SD in SKOV3 cells
[7] = system: colchicine site on tubulin; test: Inhibition of [3H]colchicine binding; conditions: 5 μM
[8] = system: cellular microtubules in A-10 cells; test: Microtubule depolymerization, indirect immunofluorescence; type: cell-based; conditions: for EC50: A-10 cells, 18 h, read-out: EC50 for MT depolymerization in A-10 cells
[9] = system: A431 cancer cells; test: A431 cytotoxicity (cell proliferation); type: cell-based, human; conditions: Homo sapiens, A-431
[10] = target: VEGFR-2 (Homo sapiens (Human), UniProt P35968); test: VEGFR-2 kinase inhibition, phosphotyrosine ELISA cytoblot; type: cell-based; conditions: U251 cells, phosphotyrosine ELISA
VEGFR-2, sequence (P35968 20-1356): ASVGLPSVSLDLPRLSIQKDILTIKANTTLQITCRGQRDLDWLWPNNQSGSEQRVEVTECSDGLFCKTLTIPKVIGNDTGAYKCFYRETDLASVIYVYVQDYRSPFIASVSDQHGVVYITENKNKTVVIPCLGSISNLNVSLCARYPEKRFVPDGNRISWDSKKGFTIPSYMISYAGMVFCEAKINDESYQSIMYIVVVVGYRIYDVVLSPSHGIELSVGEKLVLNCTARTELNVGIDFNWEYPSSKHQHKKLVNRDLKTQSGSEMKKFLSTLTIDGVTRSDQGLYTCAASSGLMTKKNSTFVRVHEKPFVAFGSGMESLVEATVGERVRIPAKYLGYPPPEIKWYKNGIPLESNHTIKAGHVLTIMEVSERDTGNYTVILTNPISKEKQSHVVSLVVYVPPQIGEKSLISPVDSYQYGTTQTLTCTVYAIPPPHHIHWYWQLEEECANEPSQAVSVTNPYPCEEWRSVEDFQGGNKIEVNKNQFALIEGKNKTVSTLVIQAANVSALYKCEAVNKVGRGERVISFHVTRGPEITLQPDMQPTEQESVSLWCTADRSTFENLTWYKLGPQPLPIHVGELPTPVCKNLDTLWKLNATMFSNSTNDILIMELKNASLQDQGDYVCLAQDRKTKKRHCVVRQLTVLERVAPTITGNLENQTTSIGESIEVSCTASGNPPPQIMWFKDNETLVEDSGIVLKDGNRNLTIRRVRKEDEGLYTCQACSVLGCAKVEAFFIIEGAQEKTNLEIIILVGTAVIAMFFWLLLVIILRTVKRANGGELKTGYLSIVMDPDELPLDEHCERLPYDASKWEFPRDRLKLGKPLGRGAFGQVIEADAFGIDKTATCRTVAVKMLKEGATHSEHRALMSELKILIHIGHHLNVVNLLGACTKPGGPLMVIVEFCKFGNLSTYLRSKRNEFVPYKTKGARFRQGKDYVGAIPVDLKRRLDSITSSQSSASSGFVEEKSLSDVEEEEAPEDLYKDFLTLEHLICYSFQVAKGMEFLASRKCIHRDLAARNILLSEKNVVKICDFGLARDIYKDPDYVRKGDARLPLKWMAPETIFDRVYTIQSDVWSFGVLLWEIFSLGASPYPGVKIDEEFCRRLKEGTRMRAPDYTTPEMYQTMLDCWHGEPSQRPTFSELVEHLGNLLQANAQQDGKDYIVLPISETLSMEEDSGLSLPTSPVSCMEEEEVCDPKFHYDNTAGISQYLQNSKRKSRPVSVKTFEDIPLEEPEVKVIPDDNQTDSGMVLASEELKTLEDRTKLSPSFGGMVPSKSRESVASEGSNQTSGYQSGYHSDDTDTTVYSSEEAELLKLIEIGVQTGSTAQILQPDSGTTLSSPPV

[11] = target: PDGFR-β (Homo sapiens (Human), UniProt P09619); test: PDGFR-β kinase inhibition, phosphotyrosine ELISA cytoblot; type: cell-based; conditions: SH-SY5Y cells, phosphotyrosine ELISA
PDGFR-β, sequence (P09619 33-1106): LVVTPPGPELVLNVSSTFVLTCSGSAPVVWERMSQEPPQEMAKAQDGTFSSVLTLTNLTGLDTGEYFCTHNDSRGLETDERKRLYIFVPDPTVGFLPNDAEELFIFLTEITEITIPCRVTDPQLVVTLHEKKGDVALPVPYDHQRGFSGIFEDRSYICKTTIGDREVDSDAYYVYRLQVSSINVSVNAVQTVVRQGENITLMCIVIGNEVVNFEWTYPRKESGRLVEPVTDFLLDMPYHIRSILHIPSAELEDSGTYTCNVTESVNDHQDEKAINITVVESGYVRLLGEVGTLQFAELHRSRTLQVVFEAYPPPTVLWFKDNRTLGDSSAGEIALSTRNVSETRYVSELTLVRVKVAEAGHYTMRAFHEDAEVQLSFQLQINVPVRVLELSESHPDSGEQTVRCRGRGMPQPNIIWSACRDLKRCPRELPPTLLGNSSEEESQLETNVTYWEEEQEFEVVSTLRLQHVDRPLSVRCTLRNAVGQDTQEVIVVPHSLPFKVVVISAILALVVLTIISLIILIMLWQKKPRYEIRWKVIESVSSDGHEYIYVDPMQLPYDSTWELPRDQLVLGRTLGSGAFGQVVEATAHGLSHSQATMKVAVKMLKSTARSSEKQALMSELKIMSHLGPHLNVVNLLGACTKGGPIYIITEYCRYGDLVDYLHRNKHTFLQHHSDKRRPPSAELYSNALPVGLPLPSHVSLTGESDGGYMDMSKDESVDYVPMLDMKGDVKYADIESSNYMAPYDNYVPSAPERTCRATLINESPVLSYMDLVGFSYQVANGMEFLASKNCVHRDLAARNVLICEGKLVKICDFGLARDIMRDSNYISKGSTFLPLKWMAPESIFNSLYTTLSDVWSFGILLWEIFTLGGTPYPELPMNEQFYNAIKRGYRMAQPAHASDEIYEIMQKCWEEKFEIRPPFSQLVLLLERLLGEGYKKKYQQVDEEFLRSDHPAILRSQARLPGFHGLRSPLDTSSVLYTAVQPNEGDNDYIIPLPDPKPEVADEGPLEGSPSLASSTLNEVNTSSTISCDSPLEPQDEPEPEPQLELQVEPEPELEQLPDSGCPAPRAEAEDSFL

[12] = target: EGFR (Homo sapiens (Human), UniProt P00533); test: EGFR kinase inhibition, phosphotyrosine ELISA cytoblot; type: cell-based; conditions: A431 cells
EGFR, sequence (P00533 25-1210): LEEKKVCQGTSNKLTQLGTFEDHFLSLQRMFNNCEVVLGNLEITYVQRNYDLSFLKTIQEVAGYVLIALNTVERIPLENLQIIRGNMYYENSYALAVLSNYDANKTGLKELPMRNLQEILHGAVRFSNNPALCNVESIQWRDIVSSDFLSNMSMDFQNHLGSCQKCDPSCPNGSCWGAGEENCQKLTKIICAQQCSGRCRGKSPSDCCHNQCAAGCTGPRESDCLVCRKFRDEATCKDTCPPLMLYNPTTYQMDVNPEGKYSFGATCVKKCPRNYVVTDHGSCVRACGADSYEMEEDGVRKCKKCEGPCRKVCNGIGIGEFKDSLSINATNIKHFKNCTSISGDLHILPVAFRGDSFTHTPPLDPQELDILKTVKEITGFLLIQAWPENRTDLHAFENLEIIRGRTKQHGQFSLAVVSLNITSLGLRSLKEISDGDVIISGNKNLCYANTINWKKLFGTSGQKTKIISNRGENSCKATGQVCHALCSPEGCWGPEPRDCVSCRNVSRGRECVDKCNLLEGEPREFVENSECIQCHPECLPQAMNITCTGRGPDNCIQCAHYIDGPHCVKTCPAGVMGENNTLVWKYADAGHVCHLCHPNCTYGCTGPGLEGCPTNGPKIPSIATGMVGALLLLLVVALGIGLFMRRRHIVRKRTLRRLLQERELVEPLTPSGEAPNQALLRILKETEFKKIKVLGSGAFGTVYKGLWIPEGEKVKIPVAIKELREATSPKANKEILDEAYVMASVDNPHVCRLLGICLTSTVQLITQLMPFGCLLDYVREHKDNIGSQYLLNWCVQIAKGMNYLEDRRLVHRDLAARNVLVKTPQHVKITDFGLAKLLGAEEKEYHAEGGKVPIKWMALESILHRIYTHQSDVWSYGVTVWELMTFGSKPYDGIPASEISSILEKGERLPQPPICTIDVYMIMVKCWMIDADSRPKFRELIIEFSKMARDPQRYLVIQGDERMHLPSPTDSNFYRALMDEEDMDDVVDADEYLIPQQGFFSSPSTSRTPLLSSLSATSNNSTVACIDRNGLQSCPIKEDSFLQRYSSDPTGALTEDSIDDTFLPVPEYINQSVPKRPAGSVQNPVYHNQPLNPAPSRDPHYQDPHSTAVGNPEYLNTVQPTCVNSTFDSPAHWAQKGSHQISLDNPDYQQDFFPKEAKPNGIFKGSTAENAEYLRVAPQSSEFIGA

[13] = system: chicken embryo chorioallantoic membrane; test: Chorioallantoic membrane (CAM) assay of angiogenesis; conditions: Gallus gallus, 48 h, read-out: CAM angiogenesis inhibition

SMILES	IC50 [10]	IC50 [11]	IC50 [12]	EC50 ([8]; Rattus norvegicus, A10)	IC50 [1]	EC50 [8]	IC50 [9]	also measured
COc1ccc(/C=C\c2cc(OC)c(OC)c(OC)c2)cc1O [CA-4, combretastatin A-4, reference compound]	–	–	–	–	1000 ± 90 nM	9.8 nM	–	IC50 [2]: 5.7 ± 0.4 nM; IC50 [3]: 3 ± 0.3 nM; IC50 [4]: 5 ± 0.3 nM; IC50 [5]: 5.6 ± 0.3 nM; IC50 [6]: 6.9 ± 0.1 nM; Inhibition of colchicine binding % inhibition ± SD [7]: 99 ± 0.2%
COc1ccc(N(C)c2nc(C)nc3oc(C)cc23)cc1 [Compound 1, reference compound]	–	–	–	–	2400 ± 10 nM	103 nM	–	–
COc1ccc(N(C)c2nc(C)nc3oc(C)cc23)c(OC)c1 [Compound 2, N-(2,4-dimethoxyphenyl)-N,2,6-trimethylfuro[2,3-d]pyrimidin-4-amine]	–	–	–	–	–	–	17.1 ± 2 nM	–
Cc1nc(N(C)c2ccc3c(c2)OCO3)c2cc(C)oc2n1 [Compound 5, N-1,3-benzodioxol-5-yl-N,2,6-trimethylfuro[2,3-d]pyrimidin-4-amine]	19.9 ± 2.1 nM	50.1 ± 7.8 nM	298 ± 38.1 nM	> 10000 nM	–	–	48.9 ± 5.1 nM	–

The next lines start with results.

IC50 [10]	IC50 [11]	IC50 [12]	EC50 ([8]; Rattus norvegicus, A10)	SMILES	IC50 [1]	EC50 [8]	IC50 [9]	also measured
18.6 ± 3 nM	66.1 ± 8.1 nM	90.3 ± 10.2 nM	–	COc1ccc(N(C)c2nc(C)nc3oc(C)cc23)cc1OC [Compound 3, N-(3,4-dimethoxyphenyl)-N,2,6-trimethylfuro[2,3-d]pyrimidin-4-amine]	–	–	9.7 ± 1.2 nM	effect on cellular microtubules ([8]; in words): dose-dependent loss of cellular microtubules
–	166 ± 20.2 nM	–	> 10000 nM	COc1cc(N(C)c2nc(C)nc3oc(C)cc23)cc(OC)c1OC [Compound 4, N,2,6-trimethyl-N-(3,4,5-trimethoxyphenyl)furo[2,3-d]pyrimidin-4-amine]	–	–	> 300 nM	IC50 [13]: > 300000 nM

From patent publication US10189853B2, “Conformationally restricted 4-substituted-2,6-dimethylfuro[2,3-d]pyrimidines as anti-tumor agents” (DUQUESNE UNIVERSITY OF THE HOLY SPIRIT, priority 2014, dated 2019)
